From patent publication US7348425B2, “Inhibitors of HCV replication” (Bristol-Myers Squibb Company, priority 2004, dated 2008) come the findings set out here.

Experiment [1] concerns the target T1, HCV NS5B RdRp genotype 1b (Hepatitis C virus genotype 1b, UniProt Q9WMX2).
T1 construct: The protein was expressed with an 18 amino acid C-terminal truncation to enhance the solubility; made in house; host or cells: E. coli BL21 (DE3), pET21a
Briefly: Modified HCV NS5B RdRp enzyme assay (with preincubation). It is filed as biochemical. As to conditions: modified method (with preincubation). The method, then: HCVNS5B RdRp cloning, expression, and purification. The cDNA encoding the NS5B protein of HCV, genotype 1b, was cloned into the pET21a expression vector. The protein was expressed with an 18 amino acid C-terminal truncation to enhance the solubility. The E. coli competent cell line BL21 (DE3) was used for expression of the protein. Cultures were grown at 37° C. for ˜4 hours until the cultures reached an optical density of 2.0 at 600 nm. The cultures were cooled to 20° C. and induced with 1 mM IPTG. Fresh ampicillin was added to a final concentration of 50 μg/ml and the cells were grown overnight at 20° C.
Cell pellets (3 L) were lysed for purification to yield 15-24 mgs of purified NS5B. The lysis buffer consisted of 20 mM Tris-HCl, pH 7.4, 500 mM NaCl, 0.5% triton X-100, 1 mM DTT, 1 mM EDTA, 20% glycerol, 0.5 mg/ml lysozyme, 10 mM MgCl2, 15 ug/ml deoxyribonuclease I, and Complete TM protease inhibitor tablets (Roche). After addition of the lysis buffer, frozen cell pellets were resuspended using a tissue homogenizer. To reduce the viscosity of the sample, aliquots of the lysate were sonicated on ice using a microtip attached to a Branson sonicator. The sonicated lysate was centrifuged at 100,000×g for 1 hr at 4° C. and filtered through a 0.2 μm filter unit (Corning).
The protein was purified using three sequential chromatography steps: Heparin sepharose CL-6B, polyU sepharose 4B, and Hitrap SP sepharose (Pharmacia). The chromatography buffers were identical to the lysis buffer but contained no lysozyme, deoxyribonuclease I, MgCl2 or protease inhibitor and the NaCl concentration of the buffer was adjusted according to the requirements for charging the protein onto the column. Each column was eluted with a NaCl gradient which varied in length from 5-50 column volumes depending on the column type. After the final chromatography step, the resulting purity of the enzyme is >90% based on SDS-PAGE analysis. The enzyme was aliquoted and stored at −80° C.
Standard HCV NS5B RdRp enzyme assay. HCV RdRp genotype Ib assays were run in a final volume of 60 μl in 96 well plates (Costar 3912). The assay buffer is composed of 20 mM Hepes, pH 7.5, 2.5 mM KCl, 2.5 mM MgCl2, 1 mM DTT, 1.6 U RNAse inhibitor (Promega N2515), 0.1 mg/ml BSA (Promega R3961), and 2% glycerol. All compounds were serially diluted (3-fold) in DMSO and diluted further in water such that the final concentration of DMSO in the assay was 2%. HCV RdRp genotype 1b enzyme was used at a final concentration of 28 nM. A polyA template was used at 6 nM, and a biotinylated oligo-dT12 primer was used at 180 nM final concentration. Template was obtained commercially (Amersham 27-4110). Biotinylated primer was prepared by Sigma Genosys. ^3H-UTP was used at 0.6 μCi (0.29 μM total UTP). Reactions were initiated by the addition of enzyme, incubated at 30° C. for 60 min, and stopped by adding 25 μl of 50 mM EDTA containing SPA beads (4 μg/μl, Amersham RPNQ 0007). Plates were read on a Packard Top Count NXT after >1 hr incubation at room temperature.
Modified HCV NS5B RdRp enzyme assay. A modified enzyme assay was performed essentially as described for the standard enzyme assay except for the following: The biotinylated oligo dT12 primer was precaptured on streptavidin-coated SPA beads by mixing primer and beads in assay buffer and incubating at room temperature for one hour. Unbound primer was removed after centrifugation. The primer-bound beads were resuspended in 20 mM Hepes buffer, pH 7.5 and used in the assay at final concentrations of 20 nM primer and 0.67 μg/μl beads. Order of addition in the assay: enzyme (14 nM) was added to diluted compound followed by the addition of a mixture of template (0.2 nM), ^3H-UTP (0.6 μCi, 0.29 μM), and primer-bound beads, to initiate the reaction; concentrations given are final. Reactions were allowed to proceed for 4 hours at 30° C.
The IC50 values for compounds were determined using seven different [I]. […]

Experiment [2] deals with HCV replicon. Briefly: HCV replicon FRET assay. It is filed as cell-based. As to conditions: Hepatitis C virus; FRET assay; read-out: EC50. The method, then: The IC50 values for compounds were determined using seven different [I]. IC50 values were calculated from the inhibition using the formula y=A+((B−A)/(1+((C/x)^D))). FRET Assay Preparation. To perform the HCV FRET screening assay, 96-well cell culture plates were used. The FRET peptide (Anaspec, Inc.) (Taliani et al., Anal. Biochem. 240:60-67 (1996), hereby incorporated by reference in its entirety) contains a fluorescence donor, EDANS, near one end of the peptide and an acceptor, DABCYL, near the other end. The fluorescence of the peptide is quenched by […] resonance energy transfer (RET) between the donor and the acceptor, but as the NS3 protease cleaves the peptide the products are released from RET quenching and the fluorescence of the donor becomes apparent. The assay reagent was made as follows: 5× cell Luciferase cell culture lysis reagent from Promega (#E153A) diluted to 1× with dH2O, NaCl added to 150 mM final, the FRET peptide diluted to 20 uM final from a 2 mM stock.
To prepare plates, HCV replicon cells, with or without a Renilla luciferase reporter gene, were trypsinized and placed into each well of a 96-well plate with titrated test compounds added in columns 3 through 12; columns 1 and 2 contained a control compound (HCV protease inhibitor), and the bottom row contained cells without compound. The plates were then placed in a CO2 incubator at 37 degrees C.
Assays. Subsequent to addition of the test compounds described above (FRET Assay Preparation), at various times the plate was removed and Alamar blue solution (Trek Diagnostics, #00-100) was added per well as a measure of cellular toxicity. After reading in a Cytoflour 4000 instrument (PE Biosystems), plates were rinsed with PBS and then used for FRET assay by the addition of 30 ul of the FRET peptide assay reagent described above (FRET Assay Preparation) per well. The plate was then placed into the Cytoflour 4000 instrument which had been set to 340 excite/490 emission, automatic mode for 20 cycles and the plate read in a kinetic mode. Typically, the signal to noise using an endpoint analysis after the reads was at least three-fold. Alternatively, after Alamar blue reading, plates were rinsed with PBS, 50 ul of DMEM (high glucose) without phenol red was added and plates were then used for luciferase assay using the Promega Dual-Glo Luciferase Assay System.
Compound analysis was determined by quantification of the relative HCV replicon inhibition and the relative cytotoxicity values. To calculate cytoxicity values, the average Alamar Blue fluorescence signals from the control wells were set as 100% non-toxic. The individual signals in each of the compound test wells were then divided by the average control signal and multiplied by 100% to determine […]. To calculate the HCV replicon inhibition values, an average background value was obtained from the two wells containing the highest amount of HCV protease inhibitor at the end of the assay period. These numbers were similar to those obtained from naïve Huh-7 cells.
The background numbers were then subtracted from the average signal obtained from the control wells and this number was used as 100% activity. The individual signals in each of the compound test wells were then divided by the averaged control values after background subtraction and multiplied by 100% to determine percent activity. EC50 values for a protease inhibitor titration were calculated as the concentration which caused a 50% reduction in FRET or luciferase activity. The two numbers generated for the compound plate, percent cytoxicity and percent activity were used to determine compounds of interest for further analysis.

T1 sequence (Q9WMX2 2420-2992): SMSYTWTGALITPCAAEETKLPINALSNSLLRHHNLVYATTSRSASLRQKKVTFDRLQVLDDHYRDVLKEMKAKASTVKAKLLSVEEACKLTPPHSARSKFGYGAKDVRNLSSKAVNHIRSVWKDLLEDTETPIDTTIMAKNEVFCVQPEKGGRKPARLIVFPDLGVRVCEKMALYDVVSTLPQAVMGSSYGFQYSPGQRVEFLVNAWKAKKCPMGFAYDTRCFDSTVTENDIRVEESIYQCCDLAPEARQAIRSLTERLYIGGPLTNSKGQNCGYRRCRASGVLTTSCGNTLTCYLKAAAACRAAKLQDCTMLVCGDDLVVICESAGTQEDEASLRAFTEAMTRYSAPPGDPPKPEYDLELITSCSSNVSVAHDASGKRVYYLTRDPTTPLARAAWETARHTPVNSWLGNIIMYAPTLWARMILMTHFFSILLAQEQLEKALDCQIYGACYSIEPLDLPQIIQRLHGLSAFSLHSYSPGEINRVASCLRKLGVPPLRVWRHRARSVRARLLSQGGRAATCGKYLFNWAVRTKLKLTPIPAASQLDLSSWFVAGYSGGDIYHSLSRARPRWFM

For `O=C(O)/C=C/c1cccc(-c2nc(C3(NC(=O)c4ccc5c(C6CCCCC6)c6n(c5c4)CC=Cc4ccccc4-6)CCCC3)c[nH]2)c1`, the IC50 (as a rule, the concentration that gives 50% inhibition) in experiment [1] is 20 to 1000 nM. The EC50 – broadly, the concentration giving half of the maximal effect – in experiment [2] was 10 to 1000 nM.
The like results for `COC(=O)/C=C/c1ccc(NC(=O)C2(NC(=O)c3ccc4c(C5CCCCC5)c5n(c4c3)CCCc3ocnc3-5)CCCC2)cc1` were, in that order, > 1000 nM and 1000 to 10000 nM.
The corresponding values for `O=C(O)/C=C/c1ccc(NC(=O)C2(NC(=O)c3ccc4c(C5CCCCC5)c5n(c4c3)CCCc3ocnc3-5)CCCC2)cc1` are 20 to 1000 nM and 10 to 1000 nM.
The like results for `O=C(NC1(C(=O)OCc2ccccc2)CCCC1)c1ccc2c(C3CCCCC3)c3n(c2c1)CCCc1cc(O)ccc1-3` were, in that order, > 1000 nM and 1000 to 10000 nM.
In turn, `O=C(O)c1ccc2c(C3CCCCC3)c3n(c2c1)CCOc1ncccc1-3` gave an IC50 in experiment [1] of 20 to 1000 nM. Moreover, the EC50 in experiment [2] was 1000 to 10000 nM.
Consider `CCOC(=O)c1nc(-c2ccc(NC(=O)C3(NC(=O)c4ccc5c(C6CCCCC6)c6n(c5c4)CCCc4ccccc4-6)CCCC3)cc2)cs1`, for which the IC50 in experiment [1] is > 1000 nM. Besides, the EC50 in experiment [2] fell in the range of 10 to 1000 nM.
Compound `O=C(NC1(C(=O)Nc2ccc(-c3csc(C(=O)O)n3)cc2)CCCC1)c1ccc2c(C3CCCCC3)c3n(c2c1)CCCc1ccccc1-3` yielded an IC50 in experiment [1] of 20 to 1000 nM. The EC50 in experiment [2] was in the range of 10 to 1000 nM.
The like results for `O=C(O)c1ccc2c(C3CCCCC3)c3n(c2c1)C/C=C\CN(CCO)c1ccccc1-3` were, in that order, > 1000 nM and 1000 to 10000 nM.
The like results for `O=C(O)c1ccc2c(C3CCCCC3)c3n(c2c1)CCCCN(CCO)c1ccccc1-3` were, in that order, > 1000 nM and 1000 to 10000 nM.
The corresponding values for `O=C1Cn2c(c(C3CCCCC3)c3ccc(C(=O)NC4(C(=O)Nc5ccc(-c6cscn6)cc5)CCCC4)cc32)-c2ccccc2N1` are 20 to 1000 nM and 10 to 1000 nM.
With `CC(C)(C)OC(=O)N1C/C=C\Cn2c(c(C3CCCCC3)c3ccc(C(=O)O)cc32)-c2cnccc21`, the IC50 in experiment [1] is > 1000 nM. Also, the EC50 in experiment [2] is > 10000 nM.
The like results for `O=C(O)/C=C/c1ccc(NC(=O)C2(NC(=O)c3ccc4c(C5CCCCC5)c5n(c4c3)CCOc3ncccc3-5)CCCC2)cc1` were, in that order, 20 to 1000 nM and 10 to 1000 nM.
Regarding `CC(C)(C)OC(=O)N1CCCCn2c(c(C3CCCCC3)c3ccc(C(=O)O)cc32)-c2cnccc21`, the IC50 in experiment [1] was > 1000 nM. In experiment [2], the EC50 was > 10000 nM.
The like results for `O=C(O)/C=C/c1ccc(NC(=O)C2(NC(=O)c3ccc4c(C5CCCCC5)c5n(c4c3)CCCN(CCO)c3ccccc3-5)CCCC2)cc1` were, in that order, 20 to 1000 nM and 10 to 1000 nM.
The corresponding values for `COC(=O)c1ccc2c(C3CCCCC3)c3n(c2c1)CC(C(=O)O)Cc1ccccc1-3` (stereo not drawn) are > 1000 nM and > 10000 nM.
The corresponding values for `O=C(O)c1ccc2c(C3CCCCC3)c3c4ccccc4ncn3c2c1` are > 1000 nM and > 10000 nM.
Regarding `COC(=O)/C=C/c1ccc(NC(=O)C2(NC(=O)c3ccc4c(C5CCCCC5)c5c6ccccc6ncn5c4c3)CCCC2)cc1`, in experiment [1], the IC50 is > 1000 nM. Moreover, in experiment [2], the EC50 lay in the range of 1000 to 10000 nM.
The corresponding values for `NC(=O)C1Cc2ccccc2-c2c(C3CCCCC3)c3ccc(C(=O)NC4(C(=O)Nc5ccc(/C=C/C(=O)O)cc5)CCCC4)cc3n2C1` (stereo not drawn) are 20 to 1000 nM and 10 to 1000 nM.
The like results for `CC(C)(C)OC(=O)N1CC(O)Cn2c(c(C3CCCCC3)c3ccc(C(=O)O)cc32)-c2ccccc21` (stereo not drawn) were, in that order, 20 to 1000 nM and 1000 to 10000 nM.
The corresponding values for `O=C(O)c1ccc2c(C3CCCCC3)c3n(c2c1)CC(O)CNc1ccccc1-3` (stereo not drawn) are 20 to 1000 nM and 1000 to 10000 nM.
Turning to `O=C(O)c1ccc2c(C3CCCCC3)c3n(c2c1)C[C@@H](O)[C@@H](O)c1ncccc1-3`, the IC50 in experiment [1] was in the range of 20 to 1000 nM. Further, in experiment [2], the EC50 lay in the range of 1000 to 10000 nM.
The corresponding values for `CNC(=O)C1Cc2ccccc2-c2c(C3CCCCC3)c3ccc(C(=O)NC4(C(=O)Nc5ccc(/C=C/C(=O)O)cc5)CCCC4)cc3n2C1` (stereo not drawn) are 20 to 1000 nM and 10 to 1000 nM.
The like results for `CN1CCN(C(=O)C2Cc3ccccc3-c3c(C4CCCCC4)c4ccc(C(=O)NC5(C(=O)Nc6ccc(/C=C/C(=O)O)cc6)CCCC5)cc4n3C2)CC1` (stereo not drawn) were, in that order, 20 to 1000 nM and 10 to 1000 nM.
The corresponding values for `CN(C)CCNC(=O)C1Cc2ccccc2-c2c(C3CCCCC3)c3ccc(C(=O)NC4(C(=O)Nc5ccc(/C=C/C(=O)O)cc5)CCCC4)cc3n2C1` (stereo not drawn) are 20 to 1000 nM and 10 to 1000 nM.
`O=C(O)/C=C/c1ccc(NC(=O)C2(NC(=O)c3ccc4c(C5CCCCC5)c5n(c4c3)CC(C(=O)N3CCC(N4CCCC4)CC3)Cc3ccccc3-5)CCCC2)cc1` (stereo not drawn) yielded an IC50 in experiment [1] of 20 to 1000 nM. Moreover, in experiment [2], the EC50 is 10 to 1000 nM.
The like results for `O=C(O)/C=C/c1ccc(NC(=O)C2(NC(=O)c3ccc4c(C5CCCCC5)c5n(c4c3)CC(C(=O)N3CCCCC3)Cc3ccccc3-5)CCCC2)cc1` (stereo not drawn) were, in that order, 20 to 1000 nM and 10 to 1000 nM.
The corresponding values for `O=C(O)/C=C/c1ccc(NC(=O)C2(NC(=O)c3ccc4c(C5CCCCC5)c5n(c4c3)CC(C(=O)N3CCCC(O)C3)Cc3ccccc3-5)CCCC2)cc1` (stereo not drawn) are 20 to 1000 nM and 10 to 1000 nM.
